Results taken from patent US8236301B2, “Lumican proteoglycan in the diagnosis and treatment of atherosclerosis” (The General Hospital Corporation, priority 2005, dated 2012).

Tested on: human umbilical vein endothelial cells (HUVECs)
Details: confluent HUVECs, single bolus of physiologic levels of H2O2, 5 hr
Procedure: HUVECs were treated with the indicated concentrations of H2O2 for 5 hours. The cells were harvested and the proteoglycans isolated and analyzed by Western blotting for lumican and biglycan.
Since lumican proteoglycan is deposited at enhanced levels in atherosclerosis-prone arteries, it is possible that lumican proteoglycan is generated by cultured human umbilical vein endothelial cells (HUVECs). The production of lumican proteoglycan by cultured human umbilical vein endothelial cells (HUVECs) was examined in vitro. Confluent HUVECs in complete media with serum and growth supplements were treated with a single bolus addition of varying concentrations of H2O2. After 5 hr the cells were washed and harvested as described previously (Kattapuram et al. (2005) Journal of Biological Chemnistry 280, 15340-15347). The proteoglycans were then extracted, isolated and analyzed by immunoblotting for lumican and biglycan.

OO [H2O2, Hydrogen Peroxide]
upregulation of biglycan (immunoblot): no upregulation | upregulation of Lumican-PG100 (immunoblot) (vs resting conditions): substantial upregulation
